# Laboratory results as given in patent publication US20250186423A1, “METHODS OF TREATING CANCER AND OTHER CONDITIONS WITH A MU OPIOID RECEPTOR ANTAGONIST” (priority 2022, published 2025).
# How the values were obtained:
# [1] = tested on: human microvascular endothelial cells; conditions: Feng et al. BMC Anesthesiol (2021); cited from earlier work
# [2] = tested on: MDA-MB-231 tumor cell line; assay: Breast cancer tumor progression in the CAM assay; type: in vivo, chicken; conditions: 5 days of growth in the upper CAM; axelopran 1.0 mg/kg, pembrolizumab 2.5 mg/kg, bevacizumab 4 mg/kg
# Description: The chicken egg chorioallantoic membrane assay (FIG. 3B) allows for the study of tumor progression of injected tumor cells in the presence of active endogenous immune surveillance, but again in the absence of an active gut microbiome.
# Breast cancer cell tumor progression was assessed in the chicken egg, chorioallantoic membrane assay. The experimental timing is shown below in FIG. 9. Fertilized chicken eggs were incubated for 9 days. The MDA-MB-231 tumor cell line was cultivated in D-MEM medium supplemented with 10% FBS and 1% penicillin/streptomycin. On day E9, cells were detached with trypsin, washed with complete medium and suspended in graft medium. An inoculum of 1×10^6 cells was added onto the CAM of each egg (E9) and then eggs were randomized into groups. Tumor cells (breast cancer MDA-MB231 cells (10^6)) were then seeded on the upper CAM and further incubated for 3 three days. Test agents were then added to the same site at selected concentrations. Following five days of further incubation the growing tumor was excised, freed of CAM tissue, and weighed.
# For this testing, the chicken eggs were treated with: axelopran; pembrolizumab (Pembro); axelopran+pembrolizumab; bevacizumab (Beva); axelopran+bevacizumab; pembrolizumab+bevacizumab; and axelopran+pembrolizumab+bevacizumab. Axelopran was used at dose of 1.0 mg/kg; pembrolizumab was used at a dose of 2.5 mg/kg; and bevacizumab was used at a dose of 4 mg/kg. The results of this testing are shown in FIG. 10A, 10B, 11 and Table 2-2.
# [3] = tested on: Human umbilical vein endothelial cells (HUVEC); assay: HUVEC cell tube formation; type: cell-based; conditions: 0-1000 nM, 18 hours, absence of exogenous opioids
# Description: Two independent model systems were used to explore the role of MOR and endogenous opioids on angiogenesis. Human umbilical vein endothelial cells (HUVEC) in culture initiate angiogenesis through tube formation when cultured on an appropriate extracellular matrix. In a living system, the chicken egg chorioallantoic membrane assay (CAM) allows direct visualization of new blood vessel formation.
# Specifically, the HUVEC cell tube formation was assessed in the presence of various doses (0-1000 nM) of three different Mu opioid receptor antagonists (axelopran, naloxegol, and methylnaltrexone (MNTX)). For this testing, the HUVEC cells were exposed to the various MOR antagonist concentrations and incubated under the following conditions: Briefly, 50 μL of Matrigel in 96 well plates was loaded to make one layer of extracellular matrix. The plate was kept for 1 hour at 37° C. HUVEC cells were seeded on top of Matrigel (0.02×10^6 cells/well) and waited for 4 h to form tube formation. […] Once tubes formed, cells were treated with increasing amounts of the test compounds (axelopran, naloxegol, and MNTX) and incubated for 18 hours. Cells were stained with Calcein AM and images were captured. The data analysis was performed using NIH imageJ software. Tube length was measure and data was plotted using prism software.
# [4] = tested on: Zebra fish larvae; assay: Zebra fish larvae mortality in combination therapy study; type: in vivo, zebrafish; conditions: TILs plus pembrolizumab
# Description: (§1) The toxicity screening period covered the first 72 hours of development. The efficacy evaluation of Axelopran was made using M-001 melanoma cells and matching TILs. Two-day old zebrafish embryos were subcutaneously injected into the perivitelline space with approximately 700 M-001 cells labelled with Dil red fluorescent dye and intravenously injected with TILs with or without pembrolizumab antibody. At the same time, MOR-antagonist test doses were added to the water. Following an additional 72 hours of further development, the fish were assayed for tumor growth (size of original tumor implant) and metastasis disseminated to the distal caudal venous plexus (CVP) three days after implantation.
# For study investigating combination therapy, the Zebra fish larvae mortality was also investigated.
# [5] = tested on: M-001 melanoma cells; assay: Melanoma tumor progression in Zebra fish larvae; type: in vivo, zebrafish; conditions: Pembro +TILS, no axelopran, 72 hours of growth
# Description: Zebra fish larvae (FIG. 3A) allow direct visualization of injected tumor cell growth and metastasis (collectively tumor progression) using fluorescently label tumor cells. At this developmental stage both the zebra fish immune system and gut microbiome are immature or lacking. Co-injection of exogenous tumor infiltrating lymphocytes (ex-TILS) allows the separate study of immune surveillance in the absence of a microbiome.
# as §1
# The testing described above was repeated studying the effects of various doses of axelopran (0, 50 nM, 100 nM, 500 nM, and 1000 nM) alone, pembrolizumab alone, or pembrolizumab in combination with axelopran. The results of this testing are shown in FIG. 7, which depicts a summary of melanoma tumor progression (tumor size×#metastasis) in the presence of increasing axelopran concentrations or the checkpoint inhibitor pembrolizumab. For experiments using pembrolizumab, exogenous tumor-infiltrating lymphocytes (TILs) were also injected. The additional controls included the effect of TILs alone and with axelopran (500 nM) and pembrolizumab and TILs alone and with axelopran (500 nM). *=<0.05, **=<0.005, ***=<0.0005.
Molecule,"Breast cancer tumor progression index (tumor size × metastasis), Mean [2]",angiogenesis (HUVEC cell tube formation) [3],also measured
C=CCN1CC[C@]23c4c5ccc(O)c4O[C@H]2C(=O)CC[C@@]3(O)[C@H]1C5 [naloxone],,,opioids-induced angiogenesis and angiogenesis by itself [1]: neither antagonizes opioids-induced angiogenesis nor induces angiogenesis by itself
bevacizumab: an anti-VEGF antibody,0.28 fraction of negative control,,
C[N@+]1(CC2CC2)CC[C@]23c4c5ccc(O)c4O[C@H]2C(=O)CC[C@@]3(O)[C@H]1C5 [methylnaltrexone],,inhibit angiogenesis,
C=CCN1CC[C@]23c4c5ccc(O)c4O[C@H]2[C@@H](OCCOCCOCCOCCOCCOCCOCCOC)CC[C@@]3(O)[C@H]1C5 [naloxegol],,inhibit angiogenesis,
"pembrolizumab: an anti-PD1 antibody, checkpoint inhibitor",0.54 fraction of negative control,,"Zebra fish larvae mortality [4]: 63%; Melanoma tumor progression index (tumor size × metastasis), Mean [5]: 4.83"
